Reference: article PMC11891828, “Olfactory Receptor Responses to Pure Odorants in Drosophila melanogaster” (The European Journal of Neuroscience, 2025)
Blank lines part the entries; values can stand above or below the compound they belong to.

What was measured:
Experiment in all cases: in vivo GCaMP6m calcium imaging of antennal neurons, GC-purified odorant
Or56a = target: T1, Or56a (Drosophila melanogaster, UniProt Q9V8Y7); conditions: activation; dose series extended to 10^-12 dilution
T1 construct: native receptor in situ in antennal olfactory sensory neurons of living flies; Or56a-Gal4 drives UAS-GCaMP6m reporter; with Odorant receptor coreceptor
T1 sequence (Q9V8Y7 1-419): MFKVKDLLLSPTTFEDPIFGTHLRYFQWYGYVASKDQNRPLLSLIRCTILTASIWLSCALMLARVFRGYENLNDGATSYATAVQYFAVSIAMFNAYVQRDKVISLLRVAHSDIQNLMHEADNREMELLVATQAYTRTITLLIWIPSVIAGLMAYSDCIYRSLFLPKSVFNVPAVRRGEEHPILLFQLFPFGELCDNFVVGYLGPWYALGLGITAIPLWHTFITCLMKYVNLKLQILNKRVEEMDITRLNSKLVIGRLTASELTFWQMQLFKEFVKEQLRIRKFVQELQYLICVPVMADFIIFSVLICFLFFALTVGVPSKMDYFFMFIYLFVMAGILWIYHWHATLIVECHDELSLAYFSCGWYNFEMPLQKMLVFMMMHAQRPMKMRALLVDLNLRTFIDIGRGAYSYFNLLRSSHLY
T1 sequence (Q9VNB5 1-486 partner): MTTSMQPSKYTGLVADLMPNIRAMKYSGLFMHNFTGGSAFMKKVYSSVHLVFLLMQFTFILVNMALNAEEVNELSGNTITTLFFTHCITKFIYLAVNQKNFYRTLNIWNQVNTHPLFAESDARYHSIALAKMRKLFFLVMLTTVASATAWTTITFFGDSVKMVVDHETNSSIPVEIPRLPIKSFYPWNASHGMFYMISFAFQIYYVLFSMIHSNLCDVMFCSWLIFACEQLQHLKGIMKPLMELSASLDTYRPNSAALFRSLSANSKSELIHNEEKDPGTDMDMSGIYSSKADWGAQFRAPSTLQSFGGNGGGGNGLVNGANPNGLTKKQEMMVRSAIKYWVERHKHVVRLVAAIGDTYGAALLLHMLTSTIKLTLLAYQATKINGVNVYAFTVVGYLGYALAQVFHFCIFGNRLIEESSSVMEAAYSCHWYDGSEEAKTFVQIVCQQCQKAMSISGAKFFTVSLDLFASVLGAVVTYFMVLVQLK

Or10a = target: T2, Or10a (Drosophila melanogaster, UniProt Q9VYZ1); conditions: activation; headspace of mineral-oil dilutions 10^-6, 10^-4, 10^-2
T2 construct: native receptor in situ in antennal olfactory sensory neurons of living flies; Or10a-Gal4 drives UAS-GCaMP6m reporter; with Odorant receptor coreceptor
T2 sequence (Q9VYZ1 1-406): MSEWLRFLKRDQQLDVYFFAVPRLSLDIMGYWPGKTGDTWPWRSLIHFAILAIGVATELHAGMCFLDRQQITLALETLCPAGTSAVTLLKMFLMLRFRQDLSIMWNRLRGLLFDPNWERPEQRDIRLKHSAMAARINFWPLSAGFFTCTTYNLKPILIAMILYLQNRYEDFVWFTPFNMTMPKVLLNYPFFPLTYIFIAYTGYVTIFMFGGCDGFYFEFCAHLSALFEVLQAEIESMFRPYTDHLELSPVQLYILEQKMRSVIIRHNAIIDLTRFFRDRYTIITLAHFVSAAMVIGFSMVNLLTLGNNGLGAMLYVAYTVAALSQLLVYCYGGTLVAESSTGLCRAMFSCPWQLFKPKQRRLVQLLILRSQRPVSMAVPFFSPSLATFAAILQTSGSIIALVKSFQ
T2 sequence (Q9VNB5 1-486 partner): T1 sequence (Q9VNB5 1-486 partner)

Or92a [1] = target: T3, Or92a (Drosophila melanogaster, UniProt Q9VDM1); conditions: activation, biphasic; polar GC column; n = 4
T3 construct: native receptor in situ in antennal olfactory sensory neurons of living flies; Or92a-Gal4 drives UAS-GCaMP6m reporter; with Odorant receptor coreceptor
T3 sequence (Q9VDM1 1-408): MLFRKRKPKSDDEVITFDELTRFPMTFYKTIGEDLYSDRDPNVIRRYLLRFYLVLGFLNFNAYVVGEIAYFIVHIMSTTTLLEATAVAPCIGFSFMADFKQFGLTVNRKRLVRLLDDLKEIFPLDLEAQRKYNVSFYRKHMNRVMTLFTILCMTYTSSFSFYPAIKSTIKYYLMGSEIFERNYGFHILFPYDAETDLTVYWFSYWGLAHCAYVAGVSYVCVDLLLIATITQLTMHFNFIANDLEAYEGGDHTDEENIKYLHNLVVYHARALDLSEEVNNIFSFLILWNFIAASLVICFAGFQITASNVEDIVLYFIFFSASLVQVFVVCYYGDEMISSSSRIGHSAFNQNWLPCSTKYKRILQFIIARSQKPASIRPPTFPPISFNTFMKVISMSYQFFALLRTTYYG
T3 sequence (Q9VNB5 1-486 partner): T1 sequence (Q9VNB5 1-486 partner)

Or47a = target: T4, Or47a (Drosophila melanogaster, UniProt P81921); conditions: activation; headspace of mineral-oil dilutions
T4 construct: native receptor in situ in antennal olfactory sensory neurons of living flies; Or47a-Gal4 drives UAS-GCaMP6m reporter; with Odorant receptor coreceptor
T4 sequence (P81921 1-385): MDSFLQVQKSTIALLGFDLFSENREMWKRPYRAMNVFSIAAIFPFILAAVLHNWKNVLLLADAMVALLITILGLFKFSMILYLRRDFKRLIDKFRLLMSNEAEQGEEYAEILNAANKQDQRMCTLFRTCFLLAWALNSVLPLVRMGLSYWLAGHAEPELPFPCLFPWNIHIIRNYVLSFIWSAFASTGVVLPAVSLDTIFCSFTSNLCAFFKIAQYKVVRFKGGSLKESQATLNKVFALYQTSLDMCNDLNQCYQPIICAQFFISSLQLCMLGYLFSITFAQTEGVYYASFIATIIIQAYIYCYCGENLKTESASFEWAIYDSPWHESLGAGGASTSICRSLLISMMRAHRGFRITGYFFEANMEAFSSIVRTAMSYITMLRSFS
T4 sequence (Q9VNB5 1-486 partner): T1 sequence (Q9VNB5 1-486 partner)

Or92a [2] = target: T3, Or92a; conditions: activation, biphasic; polar GC column; n = 4; remark: listed apart in the source

Structure (SMILES): CC1CCCC2(C)CCCCC12O (racemic) [2MNL, (±)-geosmin]
in vivo GCaMP6m calcium imaging of antennal neurons, GC-purified odorant (Or56a): We found strong responses to geosmin and none to any of the other substances

Structure (SMILES): CCOC(=O)c1ccccc1 [2EBM, ethyl benzoate]
in vivo GCaMP6m calcium imaging of antennal neurons, GC-purified odorant (Or10a): good ligands were methyl benzoate and ethyl benzoate

Structure (SMILES): C[C@H](O)[C@@H](C)O [MBDL, meso-2,3-Butanediol]
in vivo GCaMP6m calcium imaging of antennal neurons, GC-purified odorant (Or92a [1]): the meso isomer, identical to 2R,3S) gave a weak response only

Structure (SMILES): COC(=O)c1ccccc1 [MBZM, methyl benzoate]
in vivo GCaMP6m calcium imaging of antennal neurons, GC-purified odorant (Or10a): good ligands were methyl benzoate and ethyl benzoate

Structure (SMILES): COC(=O)c1ccccc1O [MSAM, methyl salicylate]
in vivo GCaMP6m calcium imaging of antennal neurons, GC-purified odorant (Or10a): The best ligand was methyl salicylate

Structure (SMILES): CCCCCOC(C)=O [PACE, pentyl acetate]
in vivo GCaMP6m calcium imaging of antennal neurons, GC-purified odorant (Or47a): We found strong responses to pentyl acetate (significant to very low concentrations

calcium response (Or92a [2]): ~ 15%
Structure (SMILES): C[C@@H](O)[C@@H](C)O [RBDL, (2R,3R)-(−)-2,3-Butanediol]

calcium response (Or92a [2]): > 40%
Structure (SMILES): C[C@H](O)[C@H](C)O [SBDL, (2S,3S)-(+)-2,3-Butanediol]
